The test system of the assay is human neutrophils. The assay can be described thus: PMN transmigration assay (Salmonella typhimurium-infected T84 monolayer, HXA3/MRP2-driven neutrophil migration, MPO readout). To be noted: dose of 100 nM, result in words. Type of assay: cell-based. The method, then:
PMN transmigration assay. T84 colorectal cancer cells were grown to confluence on the bottom side of 12 well polycarbonate membrane inserts of a 24 well Transwell® plate. The confluent growth of these epithelial cells results in physiologically-relevant apical (luminal) and basolateral surfaces in the transwells. […] The monolayer was then infected on the apical surface with Salmonella typhimurium for 2 hours to induce hepoxilin A3 (HXA3) efflux through the MRP2 membrane protein and into the apical chamber. […] Freshly isolated and prepared human neutrophils were then added to the basolateral side and allowed to transmigrate through the monolayer for 2 hours. The number of neutrophils migrated to the apical chamber (due to the HXA3 gradient) was then assayed by determination of myeloperoxidase activity (a neutrophil biomarker). Inhibition of transmigration is indicated by lower MPO activity in the apical chamber.

SMILES strings stand for the structures.

2 molecules from patent publication US20240277798A1, “CYCLOSPORINE COMPOSITIONS AND METHODS OF USE” (Bacainn Biotherapeutics, Ltd., priority 2021, published 2024) can be followed below.

In the case of `CC[C@@H]1NC(=O)[C@H]([C@H](O)[C@H](C)CCCCC(=O)O)N(C)C(=O)[C@H](C(C)C)N(C)C(=O)[C@H](CC(C)C)N(C)C(=O)[C@H](CC(C)C)N(C)C(=O)[C@@H](C)NC(=O)[C@H](C)NC(=O)[C@H](CC(C)C)N(C)C(=O)[C@H](C(C)C)NC(=O)[C@H](CC(C)C)N(C)C(=O)CN(C)C1=O` [BT122], the “inhibition of neutrophil migration” value is “exhibit inhibition”.

On to `CC[C@@H]1NC(=O)[C@H]([C@H](O)[C@H](C)CCCCCCC(=O)O)N(C)C(=O)[C@H](C(C)C)N(C)C(=O)[C@H](CC(C)C)N(C)C(=O)[C@H](CC(C)C)N(C)C(=O)[C@@H](C)NC(=O)[C@H](C)NC(=O)[C@H](CC(C)C)N(C)C(=O)[C@H](C(C)C)NC(=O)[C@H](CC(C)C)N(C)C(=O)CN(C)C1=O` [BT125], for which the “inhibition of neutrophil migration” value was “exhibit inhibition”.
